Data on 13 compounds can be found in PubChem BioAssay (NCI).

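Assay format: 96-well plates, 48-hour exposure. Here, GI50 denotes the concentration required for 50% inhibition of growth. The concentration for full growth arrest is given as TGI.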 Where a SMILES comes first, the peptide text is derived from it. [ ]: non-standard residue; d: D form. The star is where a group is joined. ξ: configuration not given here. Propanoyl(3-(4-MeO-Ph)) = COc1ccc(CCC(=O)*)cc1; Thr(3ξ) = CC(O)[C@H](N)C(=O)O; dNMeL = CN[C@H](CC(C)C)C(=O)O; OBn = c1ccc(CO*)cc1; ξLac = CC(O)C(=O)O

What all share (experiment): inhibition of tumour cell growth, NCI panel, 48 h
Assay [1] concerns HCT-116 colon.
The subject of assay [2] is U251 CNS.
Assay [3] has as its system OVCAR-3 ovarian.
The subject of assay [4] is SNB-19 CNS.
Assay [5] deals with SR leukemia.
For assay [6], the system named is PC-3 prostate.
In assay [7] the test system is SW-620 colon.
Assay [8] relates to RXF 393 renal.
The test system of assay [9] is SF-295 CNS.
For assay [10], the system named is SNB-75 CNS.
For assay [11], the system named is MDA-MB-231 breast.
The test system of assay [12] is 786-0 renal.
Assay [13] relates to UO-31 renal.
Assay [14] concerns CAKI-1 renal.
Assay [15] relates to MOLT-4 leukemia.
Assay [16] deals with MDA-MB-435.
Assay [17] has as its system K-562 leukemia.
Assay [18] deals with HT29 colon.

Take `COC(=O)[C@H](Cc1ccccc1)NP(=O)(O)OCC1OC(n2cc(C)c(=O)[nH]c2=O)CC1N=[N+]=[N-]` (stereo partly specified): the TGI in assay [1], in assay [2], in assay [3], in assay [4], in assay [5] and in assay [6] was above 100 µM throughout. Moreover, the TGI in [7], in assay [8], in assay [9], in assay [10], in [11] and in assay [12] was above 100 µM throughout. Besides, the TGI in [13], in [14], in assay [15], in assay [16], in assay [17] and in assay [18] was above 100 µM throughout.

Turning to `O=S(=O)(O)c1ccc2c(N=Nc3ccccc3Cl)c(O)ccc2c1`, the TGI in assay [1], in assay [2], in [3], in [4], in [5] and in assay [6] was above 100 µM each time. The TGI in [7], in assay [8], in assay [9], in assay [10], in assay [11] and in [12] was above 100 µM throughout. Further, the TGI in assay [13], in assay [14], in assay [15], in assay [16], in [17] and in assay [18] was above 100 µM throughout.

As to `COc1cc(C2SCC(=O)N2c2ccc(Cl)cc2)cc(I)c1O` (stereo unspecified), the TGI in assay [1], in [2], in assay [3], in assay [4], in assay [5] and in [6] was above 100 µM in each case. For the same compound, the TGI in [7], in assay [8], in [9], in [10], in assay [11] and in assay [12] was above 100 µM throughout. Besides, the TGI in assay [13], in [14], in assay [15], in assay [16], in assay [17] and in assay [18] was above 100 µM in each case.

As for `O=c1[nH]c2ccc(CC(=S)N3CCN(c4ccccc4)CC3)cc2o1`, the TGI in assay [1], in assay [2], in assay [3], in [4], in assay [5] and in assay [6] was above 100 µM throughout. Moreover, the TGI was above 100 µM in assay [7]; above 100 µM in assay [8]; above 100 µM in assay [9]; above 94.7 µM in assay [10]; above 100 µM in assay [11]; above 100 µM in assay [12]. Moreover, the TGI in assay [13], in [14], in assay [15], in [16], in assay [17] and in assay [18] was above 100 µM in each case.

Turning to `Cc1ccc(O)c(-c2csc(NCN3CCN(CNc4nc(-c5cc(C)ccc5O)cs4)CC3)n2)c1`, the TGI in [1], in assay [2], in [3], in assay [4], in assay [5] and in [6] was above 100 µM each time. The TGI in assay [7], in assay [8], in assay [9], in assay [10], in [11] and in assay [12] was above 100 µM each time. The TGI in assay [13], in assay [14], in assay [15], in assay [16], in assay [17] and in assay [18] was above 100 µM in each case.

Turning to `COc1ccc(CCC(=O)OC(C)[C@H](NC(=O)[C@@H](CC(C)C)N(C)C(=O)[C@@H]2CCCN2C(=O)C(C)O)C(=O)OCc2ccccc2)cc1` (stereo partly specified) (H-[ξLac]P[dNMeL][Thr(3ξ)](Propanoyl(3-(4-MeO-Ph)))-OBn), the TGI in assay [1] was above 100 µM; in [2], above 100 µM; in assay [3], 73.4 µM; in [4], above 100 µM; in assay [5] it was above 100 µM; in [6] it was above 100 µM. Besides, the TGI is above 100 µM in assay [7]; 44.7 µM in assay [8]; above 100 µM in [9]; 45.7 µM in assay [10]; 46.5 µM in [11]; above 100 µM in assay [12]. The TGI in assay [13] is above 100 µM; in [14], above 100 µM; in [15], 63 µM; in assay [16] it was 44.7 µM; in [17], 74.5 µM; in [18] it was above 100 µM.

In the case of `O=CC1OC(=O)c2cc(O)c(O)c(O)c2-c2c(cc(O)c(O)c2O)C(=O)OC1C(O)C(O)CO` (stereo unspecified), the TGI in [1] is 81.1 µM; in assay [2], 32.3 µM; in [3], above 100 µM; in assay [4] it was above 100 µM; in [5], 51.3 µM; in assay [6] it was 31.9 µM. Further, the TGI in [7] was 32.9 µM; in assay [8] it was above 100 µM; in assay [9] it was 67.9 µM; in assay [10], above 100 µM; in assay [11], 35.8 µM; in assay [12], above 100 µM. Besides, the TGI in [13] is above 100 µM; in assay [14] it was 35.9 µM; in assay [15], 56.8 µM; in assay [16] it was 32.9 µM; in assay [17] it was 44.2 µM; in assay [18], 46.8 µM.

For `O=C(/C=C/c1cccs1)c1cccc(C(=O)/C=C/c2cccs2)n1`, the TGI in [1] is 11.3 µM; in [2] it was above 75.8 µM; in assay [3] it was above 100 µM; in assay [4], above 85 µM; in assay [5], above 24.6 µM; in assay [6], above 100 µM. The TGI in assay [7] was 15.6 µM; in assay [8], above 86.9 µM; in assay [9] it was above 100 µM; in assay [10], above 100 µM; in [11], above 100 µM; in [12], 38.2 µM. In addition, the TGI was above 100 µM in assay [13]; above 100 µM in assay [14]; 6.54 µM in assay [15]; above 100 µM in [16]; above 100 µM in assay [17]; above 34.1 µM in assay [18].

For `CCOC(=O)/C=C(\N=P(c1ccccc1)(c1ccccc1)c1ccccc1)C(F)(F)C(F)(F)C(F)(F)C(F)(F)C(F)(F)F`, the TGI in assay [1], in [2], in assay [3], in assay [4], in assay [5] and in assay [6] was above 100 µM throughout. In addition, the TGI in [7], in [8], in assay [9], in assay [10], in [11] and in assay [12] was above 100 µM each time. In addition, the TGI in [13], in assay [14], in assay [15], in assay [16], in assay [17] and in assay [18] was above 100 µM each time.

Consider `COC(OC)(c1ccccc1)C(I)I`, for which the TGI was 18.1 µM in assay [1]; 33 µM in assay [2]; 28.7 µM in assay [3]; above 71 µM in [4]; above 45.7 µM in [5]; 30.7 µM in [6]. In addition, the TGI was above 37.1 µM in assay [7]; 10.4 µM in assay [8]; above 52.7 µM in assay [9]; 26.3 µM in assay [10]; 36.4 µM in [11]; 21.5 µM in assay [12]. The TGI is 29.8 µM in assay [13]; 24.1 µM in assay [14]; above 49.8 µM in [15]; 18 µM in assay [16]; above 35.4 µM in assay [17]; 34.9 µM in assay [18].

For `COc1ccc(C(C#N)NCCCCCCNC(C#N)c2ccc(OC)cc2)cc1` (stereo unspecified), the TGI in assay [1], in assay [2], in assay [3], in [4], in assay [5] and in [6] was above 100 µM throughout. In addition, the TGI in assay [7], in [8], in assay [9], in assay [10], in assay [11] and in assay [12] was above 100 µM in each case. For the same compound, the TGI in [13], in assay [14], in assay [15], in [16], in assay [17] and in [18] was above 100 µM in each case.

`C=Cc1cc2c(cc1O)CC[C@@H]1[C@@H]2CC[C@]2(C)[C@@H](O)CC[C@@H]12`: the GI50 in assay [1] and in assay [3] was 2.57 µM each time. In addition, the TGI is 12.1 µM in assay [1]; 15.1 µM in [2]; 8.74 µM in [3]; 13.6 µM in assay [4]; 8.4 µM in assay [5]; 36.5 µM in assay [6]. In addition, the TGI was determined as 14.2 µM in [7]; 8.92 µM in assay [8]; 10.5 µM in assay [9]; 24.4 µM in [10]; 18.7 µM in [11]; 14.3 µM in [12]. The TGI turned out to be 20.5 µM in assay [13]; 20.8 µM in assay [14]; 14.5 µM in [15]; 4.29 µM in [16]; 20.4 µM in assay [17]; 29.5 µM in assay [18].

Take `CC(C)NC(=O)OCc1c(COC(=O)NC(C)C)c(-c2ccc[n+](COC(=O)C3CC3)c2)n2c1CCC2`: the TGI in assay [1], in [2], in [3], in assay [4], in assay [5] and in assay [6] was above 100 µM in each case. The TGI in [7], in assay [8], in assay [9], in assay [10], in [11] and in [12] was above 100 µM throughout. In addition, the TGI is above 100 µM in assay [13]; 89 µM in assay [14]; above 100 µM in assay [15]; above 100 µM in assay [16]; above 100 µM in assay [17]; above 100 µM in assay [18].
